# Experimental data reported in US8143263B2, “Therapeutic agents” (Astrazeneca AB, priority 2008, dated 2012).
# Molecular target: T1, recombinant human pancreatic GLK (Homo sapiens, UniProt P35557)
# T1 sequence (P35557 1-465): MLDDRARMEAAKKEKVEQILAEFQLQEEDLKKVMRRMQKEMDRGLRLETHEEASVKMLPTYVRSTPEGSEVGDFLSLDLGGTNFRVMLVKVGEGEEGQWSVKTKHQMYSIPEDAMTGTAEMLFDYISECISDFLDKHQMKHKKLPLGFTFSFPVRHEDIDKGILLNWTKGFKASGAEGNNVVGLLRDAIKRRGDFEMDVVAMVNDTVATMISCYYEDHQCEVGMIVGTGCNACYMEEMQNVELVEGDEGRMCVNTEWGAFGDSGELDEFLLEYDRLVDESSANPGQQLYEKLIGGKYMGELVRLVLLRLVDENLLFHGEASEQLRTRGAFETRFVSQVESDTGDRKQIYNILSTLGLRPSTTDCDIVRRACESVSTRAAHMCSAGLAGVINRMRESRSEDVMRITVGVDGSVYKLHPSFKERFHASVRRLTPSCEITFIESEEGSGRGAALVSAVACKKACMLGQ
# Experiment: biochemical
row,SMILES,EC50
1,"O=C(Nc1ccc(F)cn1)[C@H](COCCO)Oc1ncnc2c1cnn2-c1c(Cl)cccc1Cl [Example 218, (2S)-2-[1-(2,6-dichlorophenyl)pyrazolo[4,5-e]pyrimidin-4-yl]oxy-N-(5-fluoro-2-pyridyl)-3-(2-hydroxyethoxy)propanamide]",215 nM
2,"CCOC[C@H](Oc1ncnc2c1cnn2-c1ccccc1C(F)(F)F)C(=O)Nc1ccc(C#N)cn1 [Example 132, (2S)—N-(5-cyanopyridin-2-yl)-3-ethoxy-2-[1-[2-(trifluoromethyl)phenyl]pyrazolo[4,5-e]pyrimidin-4-yl]oxypropanamide]",470 nM
3,"COCC[C@@H](Oc1ncnc2c1cnn2-c1cccc(OC)c1)C(=O)Nc1ccc(C)cn1 [Example 14, (R)-4-methoxy-2-{[1-(3-methoxyphenyl)-1H-pyrazolo[3,4-d]pyrimidin-4-yl]oxy}-N-(5-methylpyridin-2-yl)butanamide]",≥ 100000 nM
4,"COCCC(Oc1ncnc2c1cnn2-c1cccc(C)c1)C(=O)Nc1ccc(C)cn1 (stereo not shown) [Example 31, 4-Methoxy-2-{[1-(3-methylphenyl)-1H-pyrazolo[3,4-d]pyrimidin-4-yl]oxy}-N-(5-methylpyridin-2-yl)butanamide]",350 nM
5,"CC(C)OCC(Oc1ncnc2c1cnn2-c1ccccc1Cl)C(=O)Nc1ccc(F)cn1 (stereo not shown) [Example 112, 2-[1-(2-chlorophenyl)pyrazolo[4,5-e]pyrimidin-4-yl]oxy-N-(5-fluoro-2-pyridyl)-3-isopropoxy-propanamide]",260 nM
6,"Cc1ccc(NC(=O)[C@H](COCCO)Oc2ncnc3c2cnn3-c2c(Cl)cccc2C#N)nc1 [Example 176, (2S)-2-(1-(2-chloro-6-cyanophenyl)-1H-pyrazolo[3,4-d]pyrimidin-4-yloxy)-3-(2-hydroxyethoxy)-N-(5-methylpyridin-2-yl)propanamide]",380 nM
7,"CCCCC(Oc1ncnc2c1cnn2-c1ccccc1Cl)C(=O)Nc1cnc(C)cn1 (stereo not shown) [Example 40, 2-{[1-(2-chlorophenyl)-1H-pyrazolo[3,4-d]pyrimidin-4-yl]oxy}-N-(5-methylpyrazin-2-yl)hexanamide]",140 nM
8,"COCCOCCC(Sc1ncnc2c1cnn2-c1ccccc1Cl)C(=O)Nc1nc(C)cs1 (stereo not shown) [Example 52, 2-{[1-(2-chlorophenyl)-1H-pyrazolo[3,4-d]pyrimidin-4-yl]thio}-4-(2-methoxyethoxy)-N-(4-methyl-1,3-thiazol-2-yl)butanamide]",2900 nM
9,"N#Cc1ccc(NC(=O)[C@H](COCCO)Oc2ncnc3c2cnn3-c2ncccc2Cl)nc1 [Example 162, (2S)-2-(1-(3-chloropyridin-2-yl)-1H-pyrazolo[3,4-d]pyrimidin-4-yloxy)-N-(5-cyanopyridin-2-yl)-3-(2-hydroxyethoxy)propanamide]",1500 nM
10,"COC[C@@H](C)OC[C@H](Oc1ncnc2c1cnn2-c1ccccc1Cl)C(=O)Nc1cnc(C)cn1 [Example 155, (2S)-2-(1-(2-chlorophenyl)-1H-pyrazolo[3,4-d]pyrimidin-4-yloxy)-3-((R)-1-methoxypropan-2-yloxy)-N-(5-methylpyrazin-2-yl)propanamide]",760 nM
11,"CCOC(Sc1ncnc2c1cnn2-c1ccccc1OC)C(=O)Nc1nc(C)cs1 (stereo not shown) [Example 71, 2-Ethoxy-2-{[1-(2-methoxyphenyl)-1H-pyrazolo[3,4-d]pyrimidin-4-yl]thio}-N-(4-methyl-1,3-thiazol-2-yl)acetamide]",1600 nM
12,"C[C@H](CO)OC[C@H](Oc1ncnc2c1cnn2-c1ncccc1Cl)C(=O)Nc1ccc(C#N)cn1 [Example 189, (2S)-2-(1-(3-chloropyridin-2-yl)-1H-pyrazolo[3,4-d]pyrimidin-4-yloxy)-N-(5-cyanopyridin-2-yl)-3-((R)-1-hydroxypropan-2-yloxy)propanamide]",600 nM
13,"CCCCC(Sc1ncnc2c1cnn2-c1ccccc1Cl)C(=O)Nc1nc(C)cs1 (stereo not shown) [Example 59, 2-{[1-(2-chlorophenyl)-1h-pyrazolo[3,4-]pyrimidin-4-yl]thio}-n-(4-methyl-1,3-thiazol-2-yl)hexanamide]",650 nM
14,"Cc1c(C#N)cccc1-n1ncc2c(O[C@@H](COCCO)C(=O)Nc3ccc(C#N)cn3)ncnc21 [Example 207, (2S)-2-(1-(3-cyano-2-methylphenyl)-1H-pyrazolo[3,4-d]pyrimidin-4-yloxy)-N-(5-cyanopyridin-2-yl)-3-(2-hydroxyethoxy)propanamide]",5000 nM
15,"O=C(Nc1ccc(F)cn1)[C@H](COCCO)Oc1ncnc2c1cnn2-c1c(F)cccc1Cl [Example 244, (2S)-2-[1-(2-chloro-6-fluoro-phenyl)pyrazolo[3,4-d]pyrimidin-4-yl]oxy-N-(5-fluoro-2-pyridyl)-3-(2-hydroxyethoxy)propanamide]",330 nM
16,"Cc1ccc(NC(=O)[C@H](COC(C)C)Oc2ncnc3c2cnn3-c2ccccc2C#N)nc1 [Example 97a, (2S)-2-[1-(2-cyanophenyl)pyrazolo[4,5-e]pyrimidin-4-yl]oxy-N-(5-methylpyridin-2-yl)-3-propan-2-yloxypropanamide]",460 nM

row,SMILES,EC50
1,"CC(C)OC[C@H](Oc1ncnc2c1cnn2-c1ccccc1Cl)C(=O)Nc1ccc(Cl)cn1 [Example 115a, (2S)-2-[1-(2-chlorophenyl)pyrazolo[4,5-e]pyrimidin-4-yl]oxy-N-(5-chloro-2-pyridyl)-3-isopropoxy-propanamide]",98 nM
2,"Cc1cnc(NC(=O)[C@H](COC(C)C)Oc2ncnc3c2cnn3-c2ncccc2Cl)cn1 [Example 92, (2S)-2-(1-(3-chloropyridin-2-yl)-1H-pyrazolo[3,4-d]pyrimidin-4-yloxy)-3-isopropoxy-N-(5-methylpyrazin-2-yl)propanamide]",420 nM
3,"Cc1ccc(NC(=O)C(Oc2ncnc3c2cnn3-c2ccccc2Cl)C(C)C)nc1 (stereo not shown) [Example 83, 2-(1-(2-chlorophenyl)-1H-pyrazolo[3,4-d]pyrimidin-4-yloxy)-3-methyl-N-(5-methylpyridin-2-yl)butanamide]",870 nM
4,"CCOC[C@H](Oc1ncnc2c1cnn2-c1cccc(Cl)c1Cl)C(=O)Nc1ccc(C#N)cn1 [Example 214, (2S)—N-(5-cyanopyridin-2-yl)-2-(1-(2,3-dichlorophenyl)-1H-pyrazolo[3,4-d]pyrimidin-4-yloxy)-3-ethoxypropanamide]",320 nM
5,"C[C@H](CO)OC[C@H](Oc1ncnc2c1cnn2-c1c(C#N)cccc1C#N)C(=O)Nc1ccc(Cl)cn1 [Example 236, (2S)—N-(5-chloro-2-pyridyl)-2-[1-(2,6-dicyanophenyl)pyrazolo[3,4-d]pyrimidin-4-yl]oxy-3-[(1R)-2-hydroxy-1-methyl-ethoxy]propanamide]",740 nM
6,"C[C@H](CO)OC[C@H](Oc1ncnc2c1cnn2-c1ncccc1Cl)C(=O)Nc1ccc(F)cn1 [Example 191, (2S)-2-(1-(3-chloropyridin-2-yl)-1H-pyrazolo[3,4-d]pyrimidin-4-yloxy)-N-(5-fluoropyridin-2-yl)-3-((R)-1-hydroxypropan-2-yloxy)propanamide]",840 nM
7,"Cc1ccc(NC(=O)[C@H](COC(C)C)Oc2ncnc3c2cnn3-c2ccncc2C)nc1 [Example 135, (2S)—N-(5-methylpyridin-2-yl)-2-[1-(3-methylpyridin-4-yl)pyrazolo[4,5-e]pyrimidin-4-yl]oxy-3-propan-2-yloxypropanamide]",5900 nM
8,"COc1ccccc1-n1ncc2c(O[C@H](C)C(=O)Nc3ccc(C)cn3)ncnc21 [(R)-2-[1-(2-methoxyphenyl)pyrazolo[4,5-e]pyrimidin-4-yl]oxy-N-(5-methyl-2-pyridyl)propanamide]",> 100000 nM
9,"COC[C@H](Oc1ncnc2c1cnn2-c1ncccc1Cl)C(=O)Nc1cnc(C)cn1 [Example 90, (2S)-2-(1-(3-chloropyridin-2-yl)-1H-pyrazolo[3,4-d]pyrimidin-4-yloxy)-3-methoxy-N-(5-methylpyrazin-2-yl)propanamide]",5400 nM
10,"COC[C@H](Oc1ncnc2c1cnn2-c1ccc(F)cc1Cl)C(=O)Nc1ccc(C)cn1 [Example 96, (2S)-2-(1-(2-chloro-4-fluorophenyl)-1H-pyrazolo[3,4-d]pyrimidin-4-yloxy)-3-methoxy-N-(5-methylpyridin-2-yl)propanamide]",1300 nM
11,"Cc1cc(NC(=O)C(COC(C)C)Oc2ncnc3c2cnn3-c2ccccc2Cl)no1 (stereo not shown) [Example 110, 2-[1-(2-chlorophenyl)pyrazolo[4,5-e]pyrimidin-4-yl]oxy-3-isopropoxy-N-(5-methylisoxazol-3-yl)propanamide]",1000 nM
12,"Cc1cccnc1NC(=O)[C@H](COC(C)C)Oc1ncnc2c1cnn2-c1ncccc1Cl [(2S)-2-[1-(3-chloro-2-pyridyl)pyrazolo[4,5-e]pyrimidin-4-yl]oxy-3-isopropoxy-N-(3-methyl-2-pyridyl)propanamide]",> 100000 nM
13,"COC[C@@H](Oc1ncnc2c1cnn2-c1ccccc1Cl)C(=O)Nc1ccc(C)cn1 [Example 2, (R)-2-{[1-(2-chlorophenyl)-1H-pyrazolo[3,4-d]pyrimidin-4-yl]oxy}-3-methoxy-N-(5-methylpyridin-2-yl)propanamide]",≥ 100000 nM
14,"COc1ccnc(NC(=O)[C@H](COC(C)C)Oc2ncnc3c2cnn3-c2ncccc2Cl)c1 [(2S)-2-[1-(3-chloro-2-pyridyl)pyrazolo[4,5-e]pyrimidin-4-yl]oxy-3-isopropoxy-N-(4-methoxy-2-pyridyl)propanamide]",> 100000 nM
15,"COCCC(Oc1ncnc2c1cnn2-c1ccccc1OC)C(=O)Nc1ccc(C)cn1 (stereo not shown) [Example 22, 4-Methoxy-2-{[1-(2-methoxyphenyl)-1H-pyrazolo[3,4-d]pyrimidin-4-yl]oxy}-N-(5-methylpyridin-2-yl)butanamide]",190 nM
